pIC50, pKi: −log10 of the molar value. Structures can show the parent of a compound that is named as a salt.
What was measured:
[1] = system: leukotriene pathway in human whole blood (LTB4); assay: Human whole blood assay (LTB4 after calcium ionophore A23187 stimulation); format: cell-based; settings: Homo sapiens, human whole blood diluted 1:1 in RPMI, 15 min pre-incubation, A23187 7 μg/mL for 30 min at 37° Celsius
Summary of the method: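 Heparinised human whole blood, diluted 1:1 in RPMI, was preincubated with compound for 15 min at 37° C. before stimulation with A23187 (7 μg/mL) for 30 min. Plasma LTB4 was measured by immunoassay kit and IC50 obtained by 4-parameter fit; single replicate per plate, blood from at least one donor.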

human FLAP = human FLAP (Homo sapiens (Human), UniProt P20292); assay: FLAP binding assay (HTRF format); settings: human FLAP-containing Sf-9 membranes, 25 nM HTRF ligand, 2 h; average of runs; read-out: FLAP Binding wild type HTRF Ki
Summary of the method: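 His6-tagged human FLAP in Sf-9 membranes competed against a FITC-labelled indole FLAP modulator in HTRF format; 2 h reaction, read as HTRF ratio. Ki and IC50 from averaged duplicate ratios over 2–20 runs of two plates each; parenthetical numbers give run count.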

Sequence of human FLAP (P20292 whole entry): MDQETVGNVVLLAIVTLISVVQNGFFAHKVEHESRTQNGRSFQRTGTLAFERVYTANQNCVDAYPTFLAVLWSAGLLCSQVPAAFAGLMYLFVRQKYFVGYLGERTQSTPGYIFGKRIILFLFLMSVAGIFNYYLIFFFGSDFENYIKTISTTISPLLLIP

SMILES | pIC50 [1] | pKi (human FLAP)
Cn1ccc(COc2ccc3nc([C@@H]4CCCC[C@@H]4C(=O)O)n(Cc4ccc(OC(F)(F)F)cc4Cl)c3c2)n1 (racemic) [Example 103, racemic cis-2-{1-[2-Chloro-4-(trifluoromethoxy)benzyl]-6-[(1-methyl-1H-pyrazol-3-yl)methoxy]-1H-benzimidazol-2-yl}cyclohexanecarboxylic acid as the HCl salt] | 6.00 | 7.52
CCC(CC)(Cc1nc2ccc(OCc3ccn(C)n3)cc2n1Cc1ccc(OC(F)(F)F)cc1C)C(=O)O [Example 92] | 5.84 | ~6.60
CCC(CC)(Cc1nc2ccc(OCc3ccn(C)n3)cc2n1Cc1ccc(OC(F)(F)F)cc1F)C(=O)O [Example 56, 2-Ethyl-2-({1-[2-fluoro-4-(trifluoromethoxy)benzyl]-6-[(1-methyl-1H-pyrazol-3-yl)methoxy]-1H-benzimidazol-2-yl}methyl)butanoic acid] | ~5.70 | 7.34
